Measured values taken from PubChem BioAssay (NCI).
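Cells were grown in 96-well plates and exposed to each compound for 48 hours at five concentrations; endpoints were interpolated linearly between bracketing concentrations, or set to the highest concentration if not reached. TGI denotes the concentration required for complete inhibition of growth.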

What was measured:
Assay in all cases: NCI tumour cell line growth inhibition, 48 h
ACHN renal = system: ACHN renal
CAKI-1 renal = system: CAKI-1 renal
CCRF-CEM leukemia = system: CCRF-CEM leukemia
HOP-92 NSCLC = system: HOP-92 NSCLC
HS 578T breast = system: HS 578T breast
MALME-3M melanoma = system: MALME-3M melanoma
MCF7 breast = system: MCF7 breast
MDA-N = system: MDA-N
OVCAR-4 ovarian = system: OVCAR-4 ovarian
OVCAR-5 ovarian = system: OVCAR-5 ovarian
PC-3 prostate = system: PC-3 prostate
SK-MEL-2 melanoma = system: SK-MEL-2 melanoma
SNB-19 CNS = system: SNB-19 CNS
UACC-257 melanoma = system: UACC-257 melanoma
UO-31 renal = system: UO-31 renal
COLO 205 colon = system: COLO 205 colon
K-562 leukemia = system: K-562 leukemia
SF-295 CNS = system: SF-295 CNS
SK-MEL-5 melanoma = system: SK-MEL-5 melanoma

SMILES	TGI (ACHN renal)	TGI (CAKI-1 renal)	TGI (CCRF-CEM leukemia)	TGI (HOP-92 NSCLC)	TGI (HS 578T breast)	TGI (MALME-3M melanoma)	TGI (MCF7 breast)	TGI (MDA-N)	TGI (OVCAR-4 ovarian)	TGI (OVCAR-5 ovarian)	TGI (PC-3 prostate)	TGI (SK-MEL-2 melanoma)	TGI (SNB-19 CNS)	TGI (UACC-257 melanoma)	TGI (UO-31 renal)	TGI (COLO 205 colon)	TGI (K-562 leukemia)	TGI (SF-295 CNS)	TGI (SK-MEL-5 melanoma)
OC(c1ccc(F)cc1)C(F)(F)c1nc(-c2ccccc2)no1 (stereo not drawn)	67.2 µM	72.1 µM	52.2 µM	91.9 µM	63.9 µM	35 µM	50.3 µM	62.7 µM	41.5 µM	35.6 µM	63.4 µM	39.1 µM	64.2 µM	43.4 µM	35.4 µM				
CCCCOP(=O)(OCCCC)/C(C#N)=C/c1ccc(C)o1	> 100 µM	> 100 µM		79.6 µM	> 100 µM	99.2 µM	> 100 µM	95.5 µM	> 100 µM	> 100 µM	51.4 µM	77.3 µM	> 100 µM	> 100 µM		> 100 µM	71.3 µM	> 100 µM	76.1 µM
C/C(=N\Nc1nc2ccccc2[nH]1)c1ccncn1	0.986 µM	> 49 µM	> 36.6 µM	0.293 µM	> 100 µM	> 100 µM	> 39.2 µM	> 100 µM	> 100 µM	> 100 µM	> 100 µM	> 66.1 µM	> 100 µM	> 31.6 µM		> 47.4 µM	> 100 µM	> 44.6 µM	13.4 µM
Cc1ccc(-c2c(C#N)c(-c3ccc([N+](=O)[O-])cc3)c(C#N)c(=O)n2NS(=O)(=O)c2ccc(C)cc2)cc1	> 100 µM	> 100 µM	73.2 µM	> 100 µM	95.8 µM	> 100 µM	> 100 µM	> 100 µM	> 100 µM	> 100 µM	> 100 µM	> 100 µM	> 100 µM	> 100 µM		> 100 µM	> 100 µM	> 100 µM	48.7 µM
CN(C)C(=S)N/N=C\C(=N/NC(=S)N(C)C)c1ccccc1	> 100 µM	> 100 µM		92.1 µM	> 29.9 µM	> 57.5 µM	> 38.8 µM	> 100 µM	> 100 µM	> 100 µM	> 100 µM	> 100 µM	> 100 µM	> 100 µM	> 100 µM	> 100 µM	> 100 µM	> 100 µM	> 100 µM
Cc1[nH]c2ncn3ncnc3c2c1Cc1ccccc1	> 100 µM	> 100 µM	> 100 µM	> 100 µM	> 100 µM	> 100 µM	> 100 µM	> 100 µM	> 100 µM	> 100 µM	> 100 µM	> 100 µM	> 100 µM	> 100 µM	> 100 µM	> 100 µM		> 100 µM	> 100 µM
CCOC(=O)C1(Cc2ccccc2)Cc2cc3c(cc2C1=O)CCC3 (stereo not drawn)	> 100 µM		> 100 µM	> 100 µM	> 100 µM	> 100 µM	> 100 µM	> 100 µM	> 100 µM	> 100 µM	> 100 µM	> 100 µM	> 100 µM	> 100 µM	> 100 µM	> 100 µM	> 100 µM	> 100 µM	> 100 µM
COc1ccc(OC)c(C2CCCc3c2cnc2nc(N)nc(N)c32)c1 (stereo not drawn)	> 100 µM	> 100 µM	> 100 µM	> 100 µM	> 100 µM	> 100 µM	0.017 µM	> 100 µM	> 100 µM		> 100 µM	> 100 µM	> 100 µM	> 100 µM	> 100 µM	> 100 µM	> 100 µM	> 100 µM	> 100 µM
O=C(Nc1ccc(Cl)c(Cl)c1)C(=O)C(C1OC(=O)c2ccccc21)[N+](=O)[O-] (stereo not drawn)	> 100 µM	> 100 µM	> 100 µM	> 100 µM	> 100 µM	> 100 µM	> 100 µM	> 100 µM	> 100 µM	> 100 µM	> 100 µM	> 100 µM	> 100 µM	> 100 µM	> 100 µM	> 100 µM		> 100 µM	> 100 µM
Cc1nc2c(O)cccc2c(=O)[nH]1	> 1000 µM	> 1000 µM	> 1000 µM	> 1000 µM	> 1000 µM	> 1000 µM	> 1000 µM	> 1000 µM	> 1000 µM	> 1000 µM	> 1000 µM	> 1000 µM	> 1000 µM	> 1000 µM	> 1000 µM		> 1000 µM	> 1000 µM	
COc1ccc(-c2nc(N(C)C)c3ccccc3n2)cc1	53.5 µM	> 100 µM		68.8 µM	59.2 µM	42.1 µM	24.1 µM	32.5 µM	> 100 µM	62.2 µM	58.8 µM	41.7 µM	> 100 µM	32.6 µM	15.8 µM	29.6 µM	40.7 µM	46.3 µM	26.2 µM
